Test results as given in patent publication US12433295B2, “Small-scale robots for biofilm eradication” (THE TRUSTEES OF THE UNIVERSITY OF PENNSYLVANIA, priority 2018, dated 2025).

System: biofilm extracellular matrix
Experiment: dose dependent extracellular matrix degradation of the enzymes mutanase and dextranase (FIG. 4)
Assay type: cell-based
Settings: combination of mutanase and dextranase
Text: FIG. 4 depicts the dose dependent extracellular matrix degradation of the enzymes mutanase and dextranase.
FIG. 4 depicts the dose dependent extracellular matrix degradation of the enzymes mutanase and dextranase in accordance with an embodiment of disclosed subject matter. While the catalytic function of iron oxide nanoparticles degrades the biofilm matrix more slowly than it substantially eradicates the bacteria, the rate of degradation can be enhanced with enzymes including mutanase and dextranase. A combination of 1.75 U mutanase and 8.75 U dextranase achieves maximal efficacy for extracellular matrix degradation.

Row | Substance | amount that achieves maximal efficacy for extracellular matrix degradation [U]
1 | mutanase | 1.75
2 | dextranase | 8.75
